Residues, ends and D or L forms follow the SMILES beside them. *: point of attachment. Tos = Cc1ccc(S(=O)(=O)*)cc1; NHPh = c1ccc(N*)cc1
melting point	Compound
60 to 62 °C	CCCCCCCCCCCCCCCCCCOc1ccccc1NC(=O)CC(=O)C(C)(C)SCC
200 to 203 °C	Cc1c(CCc2ccc3nc(N)sc3c2)ncn1C(c1ccccc1)(c1ccccc1)c1ccccc1
85 °C	O=C(O)c1cnn(OCCCC2OCCO2)c1
90 to 91 °C	CCCCCCSc1nn2c(=O)cc(-c3ccccc3)nc2s1
120 to 121 °C	C=Cc1c(NC(=O)OC(C)(C)C)cccc1[N+](=O)[O-]
231 to 233 °C	CC(=O)Oc1cc2nc[nH]c(=O)c2cc1OCc1ccccc1
151 to 153 °C	CCOC(=O)c1cn(C(C)CCl)c2cc(Cl)c(F)cc2c1=O (stereo not given)
258 to 259 °C	O=C(Nc1ccccc1C(c1ccc(O)cc1)c1ccc(O)cc1)c1ccc([N+](=O)[O-])cc1
> 210 °C	COc1ccc(F)c2c(O)c3cnccc3cc12
104 to 108 °C	CN1CCN(c2cc(Br)cc3c2c(=O)n(Cc2ccccc2Cl)c(=O)n3Cc2ccccc2)CC1
62 to 63 °C	C(=C\C1CCCCC1)/c1nc(COc2ccc(CCCn3ccnc3)cc2)co1
180 °C	CS(=O)(=O)N1CCN([C@@H](CNS(=O)(=O)c2ccc(OCc3ccnc4ccccc34)cc2)C(=O)NO)CC1
117 to 120 °C	Cc1ccc(C)n1-c1ccc(C2(C#N)CCCC2)cc1
126 to 128 °C	CCn1c(=O)c(-c2c(Cl)cccc2Cl)cc2cnc(NCCCN3CCN(C)CC3)nc21
190 °C	CN(C)CCCOc1ccc2ccc(NC(=O)c3c(F)cccc3F)nc2n1
178 to 183 °C	COC(=O)C(=C(C)O)N1C(=O)C(N2C(=O)c3ccccc3C2=O)C1SC(C)=O (stereo not given)
171 °C	CC1=C(c2ccc(C(=O)N3Cc4ccc(C(=O)O)n4Cc4ccccc43)cc2)CCCC1
251 °C	CC(C)(CO)NS(=O)(=O)c1cccc(NC(=O)c2cnn3c(C(F)(F)F)cc(-c4ccc(C(F)(F)F)c(Cl)c4)nc23)c1
185 to 187 °C	CCCN1CCN(Cc2ccc3c(c2)-c2[nH]nc(-c4ccsc4)c2C3)CC1
212 to 215 °C	O=C1Nc2ccccc2C12COc1ccc3c(c12)N(Cc1ncccc1C(F)(F)F)ON3 (stereo not given)
75 to 77 °C	CCCCOC1OC(CO)C(O)(N(CC)C(=O)N(CCCl)N=O)C(O)C1O (stereo not given)
117 to 122 °C	COC(=O)c1ccc(Cl)cc1C1(c2ccccc2F)OCC(CCl)O1 (stereo not given)

melting point	Compound
248 °C	CC12CCC(=O)C=C1CCC1C2=CCC2(C)C1CCC2(O)C(=O)CO (stereo not given)
257 to 260 °C	CC1(C)CN2C(=O)c3ncccc3C(O)(c3ccc(Cl)cc3)C2=N1 (stereo not given)
> 300 °C	O=C(NCC1CCN(c2cc3nc(C(=O)O)c(=O)[nH]c3cc2[N+](=O)[O-])C1)Nc1ccccc1 (stereo not given)
108 to 110 °C	O=S(=O)(c1ccccc1)C1C2CCC(C2)C1Br (stereo not given)
126 to 129 °C	COC(=O)C1=Cc2cc(-c3ccc4c(c3)OCO4)ccc2SCC1
114 to 116 °C	Oc1ccc(C(=S)c2ccc(-c3ccccc3)cc2)c(O)c1
164 to 166 °C	Cc1nc(C=O)c(C)[nH]1
173 to 175 °C	CCC(=O)c1ccc(=O)[nH]c1C
144 to 146 °C	CC(c1cccc(C#N)n1)C(O)(Cn1cncn1)c1ccc(F)cc1F (stereo not given)
103 to 105 °C	Cc1nc2nc(SCc3ccccc3)nn2c(Cl)c1Cl
245 to 246 °C	COc1ccc(-c2c(Cl)c(CN3C(=O)CCC3=O)nc3sc4c(c23)CCC(=O)C4(C)C)cc1
52 to 54 °C	COCOc1ccc2cc(C=O)ccc2c1
83 to 91 °C	COc1ccc(C2CNC(=O)O2)cc1OCc1ccccc1 (stereo not given)
183 to 185 °C	Cc1ccccc1C(=O)Nc1ccc(C(=O)N2CCCC(N(C)C)c3ccccc32)c(C)c1 (stereo not given)
156 °C	Nc1nc2ccc(OC(F)(F)C(F)(F)F)cc2s1
278 to 292 °C	CNC(=O)c1ccc(C=CC(=O)NCC(=O)N(C)c2ccc(C)c(COc3cccc4c3nc(S)n4C)c2C)cc1
55 to 60 °C	CC(=CCCCC(C)(C)O)c1cccc(C=Cc2cc(O)cc(O)c2)c1
212 to 215 °C	CCn1cc(CN(C(=O)C2CCCc3c(O)cccc32)c2ccc(C(C)C)cc2)cn1 (stereo not given)
227 to 228 °C	Cc1nc(-c2ccc3c(=O)n(CC(C)C)c(CNC(=O)OC(C)(C)C)c(-c4ccccc4)c3c2)sc1C(N)=O
173 to 175 °C	COc1ccc2c(c1)c(CC(=O)O)c(C)n2CC1CCCCC1
172 to 174 °C	CCn1c(=O)n(O)c(=O)c2cc(F)c(F)cc21
124 °C	COC=C(C(=O)OC)C1(c2ccc(OC)cc2)CC=C2C=CC=C2O1 (stereo not given)

melting point	Compound
95 to 97 °C	Cc1sc(N)c(C(=O)c2ccco2)c1C
183 to 186 °C	COC(=O)c1cc(O)cc(C(=O)OC)c1[N+](=O)[O-]
179 to 180 °C	CCN1CCNC(=O)C1c1ccc(Nc2nc(-c3ccc(F)c(NC(=O)c4cc5c(s4)CCCC5)c3C)cn(C)c2=O)cc1 (stereo not given)
67 to 74 °C	C[C@@H]1c2sccc2CN(C)[C@H]1CCNC(=O)c1ccc(NS(C)(=O)=O)cc1 (relative stereo)
125 to 128 °C	CCOC(=O)c1cnc2c(SC(=O)N(C)C)nccn2c1=O
189 to 190 °C	Cc1ccc2ncn([C@H](C)[C@](O)(Cn3cncn3)c3ccc(F)cc3F)c(=O)c2c1
152 to 153 °C	O=C(NCCCCCCCNC(=O)c1ccc(OC(Cl)(Cl)Cl)cc1)c1ccc(OC(Cl)(Cl)Cl)cc1
311 to 313 °C	COc1ccc(-c2c3c(cc4ccc5c(c24)OCO5)C(=O)NC3=O)cc1
177 to 178 °C	COc1ccc(C(=O)Nc2ccccc2)cc1NC(=S)Nc1cccc(C(F)(F)F)c1
56 to 58 °C	COc1nc(C)c(C)cc1N
112 to 114 °C	COc1ccccc1C(=O)N1CCN(C(=O)CN2CCC(O)(c3ccccc3)CC2)C(c2ccc(Cl)c(Cl)c2)C1 (racemic)
87 to 89 °C	O=C(NC1CCN(CCc2cccc(F)c2)C1)C12CC3CC(CC(C3)C1)C2 (stereo not given)
184 to 185 °C	O=C1c2ccccc2C(=O)N1CC(=O)N1Cc2ccccc2Oc2ccc(Cl)cc21
223 to 226 °C	CCn1nc(C(F)(F)F)cc1NC(=O)c1c(C)cccc1C(=O)NC(C)C
87 to 88 °C	O=C(OC1CCCC1=O)c1ccccc1 (stereo not given)
> 325 °C	N#CC1CN(c2c(F)cc3c(=O)c(C(=O)O)cn(C4CC4)c3c2F)C1
107 °C	Cn1c(CCCO)nc2ccccc21
121 to 122 °C	COc1ccc(CNc2nc(NCc3ccc(C(O)C(F)(F)F)cc3)nc3ncccc23)cc1OC (stereo not given)
157 to 160 °C	O=c1c2ccccc2c2cnn(-c3ccccc3)c2n1CCCl
61 to 62.5 °C	CCC(CC)Nc1c([N+](=O)[O-])cc(C)c(Cl)c1[N+](=O)[O-]
121 to 124 °C	CNc1cc(OC)c(OC)cc1C(C)=O
174 to 178 °C	Nc1cccc(C(=O)c2cc3c(Oc4ccc(Cl)cc4)cncc3s2)c1

melting point	Compound
171 to 173 °C	CC12CCC(=O)C=C1CCC1C2CCC2(C)C(C(=O)c3ccccc3)CCC12 (stereo not given)
154 to 156 °C	O=C1C(=Cc2c[nH]c3ccccc23)N(Cc2ccccc2)C(=O)N1Cc1cc(C(F)(F)F)cc(C(F)(F)F)c1
125 to 128 °C	CC(=O)NC1(c2ccccc2)CCN(CC[C@@H](c2ccc(Cl)c(Cl)c2)[C@@H](O)c2cnnn2-c2ccccc2)CC1 (racemic)
178 to 181 °C	Cn1c(-c2cccc(Cl)c2)cc(-c2cccc(Cl)c2)nc1=O
174 to 175 °C	Cc1cc(C)cc(Nc2nnc(Cc3ccncc3)c3ccccc23)c1
109 to 110 °C	CC1(C)C=C(N2CCNCC2=O)c2cnccc2O1
139 to 142 °C	CN(C)C1CCCN(C(=O)c2ccc([N+](=O)[O-])cc2)c2ccccc21 (stereo not given)
> 325 °C	Cc1cc2c(cc1C)-n1c(n[nH]c1=O)C=C(c1ccc(-n3c(C)nc4cnccc43)cc1)N2
213 to 214 °C	FC(F)(F)Cn1c(-c2c(Cl)cccc2Cl)nc(-c2ccncc2)c1-c1ccc(Cl)cc1
155 to 156 °C	COc1cccc(COc2ccc3oc(-c4nc(C(C)(C)C)cs4)cc3c2)c1OC(C)C(N)=O (stereo not given)
144 to 146 °C	CCCc1c(OCCOc2cccc(Sc3ccc(C(=O)O)cc3)c2)ccc(C(C)=O)c1O
80 to 81 °C	CCOc1ccccc1C(O)c1cc(Cl)ccc1N (stereo not given)
142 to 143 °C	CC(C)(CCn1ccnc1)NCC(O)c1ccc(OCc2ccccc2)c(NC(N)=O)c1 (stereo not given)
202 to 204 °C	COc1ccc(-c2nc(C)c(NC(C)=O)[nH]2)cc1
158 to 160 °C	CC(C)n1c(=O)n(C)c(=O)c2cn(C3Cc4ccccc4C3)cc21
77 to 78 °C	C=C1CCC2C3CCC4=C(CC=C(OC)C4)C3CCC12C (stereo not given)
106 to 108 °C	COc1ccc(CCOS(N)(=O)=O)cc1OC
172 °C	CCCCCCN(CCCCCC)c1ccc(C=CC2=C(C#N)C(=C(C#N)C#N)OC2(C)C)s1
145 to 147 °C	Cc1ccc(S(=O)(=O)N[C@@H](C)C(=O)N2CCC[C@H]2C(=O)Nc2ccccc2)cc1 (Tos-Ala-Pro-NHPh)
192 to 193 °C	CC(C)(C)OC(=O)N1CCN(CCSc2nc3cc(F)c(F)cc3[nH]2)CC1
159 to 160 °C	Nc1ccccc1NC(=O)c1ccc(CNC(=O)OCc2cccnc2)cc1
81 °C	CC(=O)OC1CC(n2cc(C=CBr)c(=O)[nH]c2=O)OC1C(O)F (stereo not given)

Compound	melting point
Cc1ccc(S(=O)(=O)NC(C)P(=O)(Oc2ccccc2)c2ccccc2)cc1 (stereo not given)	178 to 181 °C
Cc1c(C(=O)C(=O)NC2=CC(=O)OC2)c2ccccc2n1Cc1ccc(Cl)cc1	254 to 256 °C
Cc1n[nH]c(C)c1CC1CC2c3cccc4[nH]cc(c34)CC2N(C)C1 (stereo not given)	> 300 °C
CN1CCN(c2ccc(O)c3c2C[C@H](N)CC3)CC1	238 to 239 °C
CC1(C)CCC(C)(C)c2c(CO)cc(-c3ccccc3)cc21	80 to 82 °C
CC(C)C(=O)N[C@@H]1CCc2c(c3cc(-c4ccno4)ccc3n2Cc2cccc(F)c2)C1	238 to 241 °C
Cc1cc(SCc2sc(-c3ccc(C(F)(F)F)c(F)c3)nc2C)ccc1OCC(=O)O	< 50 °C
